Assay results from US11638723B2, “Method for generating T cells progenitors” (Assistance Publique—Hopitaux de Paris, priority 2017, dated 2023).

How the values were obtained:
[1] = target: T1, Aryl hydrocarbon/Dioxin receptor (AhR) (Homo sapiens, UniProt P35869); conditions: cited from earlier work
T1 sequence (P35869 11-848): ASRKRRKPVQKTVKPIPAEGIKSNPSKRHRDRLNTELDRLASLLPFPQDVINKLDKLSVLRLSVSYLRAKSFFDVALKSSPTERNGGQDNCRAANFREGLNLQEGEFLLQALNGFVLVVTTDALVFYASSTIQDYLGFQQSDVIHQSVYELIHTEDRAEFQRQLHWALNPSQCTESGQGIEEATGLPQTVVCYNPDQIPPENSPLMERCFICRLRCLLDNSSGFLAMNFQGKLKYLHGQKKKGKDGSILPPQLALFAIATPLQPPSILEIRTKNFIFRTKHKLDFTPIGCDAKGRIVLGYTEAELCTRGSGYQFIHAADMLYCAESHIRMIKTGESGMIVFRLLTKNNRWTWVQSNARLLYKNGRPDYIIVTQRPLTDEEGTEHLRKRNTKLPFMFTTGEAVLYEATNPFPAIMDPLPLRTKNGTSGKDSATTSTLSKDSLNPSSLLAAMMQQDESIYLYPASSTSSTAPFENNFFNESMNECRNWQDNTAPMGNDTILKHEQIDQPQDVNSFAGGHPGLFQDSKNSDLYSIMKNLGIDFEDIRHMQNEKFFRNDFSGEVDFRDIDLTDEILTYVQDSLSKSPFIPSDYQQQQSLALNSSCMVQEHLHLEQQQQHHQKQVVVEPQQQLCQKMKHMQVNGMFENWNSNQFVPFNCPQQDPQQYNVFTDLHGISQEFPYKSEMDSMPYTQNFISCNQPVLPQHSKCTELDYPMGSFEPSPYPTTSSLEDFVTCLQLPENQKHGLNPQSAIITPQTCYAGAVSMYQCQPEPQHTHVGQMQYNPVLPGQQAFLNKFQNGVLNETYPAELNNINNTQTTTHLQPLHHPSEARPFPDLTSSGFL

[2] = system: CD34+ cells from cord blood; assay: DL-4 culture of CD34+ cells, T-cell precursor generation (flow cytometry); type: cell-based, human; conditions: FIG. 9
Experimental: CD34+ cells from human CB or mobilized peripheral blood samples were cultured in 24-well plates or 6-well plates that had been coated with recombinant human fibronection (RetroNectin®, Clontech/Takara) and DL-4 (5 μg/ml, PX'Therapeutics, Grenoble, France). Coating was performed for 2 h at 37° C., DL-4 coated wells were then blocked with bovine serum albumin 2% (BSA) in phosphate-buffered saline (PBS) for 30 minutes at 37° C. and washed with PBS. […] Cultured cells were analyzed by fluorescence-activated cell sorting (FACS) after 3 and 7 days of culture on DL-4 respectively to exclude CD34-/CD7-myeloid cells from subsequent analyses.
Human cells were stained and analyzed using a Gallios analyzer (Beckman Coulter, Krefeld, Germany). […] The data were analyzed using FlowJo software (Treestar, Ashland, Oreg.) after gating on viable, 7AAD-negative cells.
The data were analyzed using FlowJo software (version 10.2, Treestar, Ashland, Oreg.) after gating on viable, 7AAD-negative cells.

DL-4 T-cell precursors = assay: Analysis of T cell receptor rearrangement; type: cell-based, human
Experimental: TCR gene rearrangement analysis was performed in duplicate and on the two independently purified subsets (average is shown). TCR-δ quantification (D δ2-D δ3, D δ2-J δ1, and D δ3-J δ1) was performed with the listed sets of primers and probes. The analysis of TCR rearrangements by multiplex fluorescent PCR was performed by separation of fluorochrome-labeled single stand PCR products in a capillary sequencing polymer and detected via automated laser scanning.

## Cc1ccccc1N=Nc1ccc(NC(=O)c2ccnn2C)c(C)c1 [CH 223191]
[1]
  IC50: 0.03 µM

## CC(C)n1cnc2c(NCCc3ccc(O)cc3)nc(-c3csc4ccccc34)nc21 [SR1, 4-(2-(2-(Benzo[b]thiophen-3-yl)-9-isopropyl-9H-purin-6-ylamino)ethyl)phenol]
[2]
  T-cell differentiation, CD5+CD7+ cells at day 7: accelerates T-cell differentiation
DL-4 T-cell precursors; CB cells
  TCRdelta rearrangements: Detection of D52-D53 rearrangements
DL-4 T-cell precursors; after 7 days of culture
  signs of TCR rearrangement: do not exhibit any signs of TCR rearrangement
